Results on 24 compounds are retold here after patent US20260193531A1, “LIQUID WEIGHTING AGENTS FOR OIL-BASED FLUIDS” (Albemarle Corporation, priority 2022, published 2026).

Where two headings read alike, the source gives them in different places.

Data set [1] is described as follows: Density of the esters and ester mixtures. The data set is classed as physicochemical.
For the next data set, the system named is Leptocheirus plumulosus. The data set is classed as in vivo. To be noted: for Quantity: estimate. As to the method: Sediment toxicity testing. Sediment toxicity testing was according to U.S. Environmental Protection Agency Method 1644, the “Method for Conducting a Sediment Toxicity Test with Leptocheirus plumulosus and Non-Aqueous Drilling Fluids or Synthetic-Based Drilling Muds”. The testing procedure was as follows: • 1. Leptocheirus plumulosus amphipods were cultured and maintained in natural sediment at 23±2° C. before being exposed to a test sample. • 2. A sample contained sediment, synthetic seawater, and the substance being tested. Five samples of each substance were prepared and tested, the sample having concentrations of 100, 200, 400, 800, and 1600 mg/kg of the substance to be tested. • 3. For each sample, a 1-liter jar was prepared with approximately 150 mL of formulated sediment with 600 mL of synthetic sea water, and the substance to be tested. • 4. In each test, 20 Leptocheirus plumulosus amphipods were exposed to the sample at 20±1° C. for 10 days in the 1-L closed jar; the Leptocheirus plumulosus amphipods were not fed after the test was initiated. • 5. At the end of 10 days, the Leptocheirus plumulosus amphipods remaining alive were counted and an LC50 value was predicted based on those results.

Data set [2] can be described thus: Closed-bottle anaerobic biodegradation test, EPA Method 1647 (275 days). As to conditions: Duration 275 days. As for the experimental part: Anaerobic biodegradation testing. […] For each substance, four samples were run. Each test was compared to separate standard samples containing ethyl oleate, squalane, 1-hexadecene, C16-18 internal olefin, or no additive. To pass the test, the sample must have more net biodegradation than the C16-18 internal olefin. The testing procedure was as follows: • 1. Each test mixture was prepared by combining with 2000 mg carbon (sample) per kg of natural sediment; 30 grams of the mixture were used for each sample run. The carbon content of the sample was measured before mixing the sample with the sediment. […] After a bottle was capped, a nitrogen sparge was employed to remove air in the headspace of the bottle before incubation was started. • 3. During the incubation period, the sample is kept at a constant temperature of 29±1° C. • 4. […] Each sample was brought to ambient temperature to make each measurement. Gas production was measured with a pressure gauge, and barometric pressure was also measured at the time of measurement to make volume corrections.

A short description of data set [3]: Miscibility with a base oil (solid formation or phase separation after one week). To be noted: 50:50 weight mixture with a base oil; for miscibility: room temperature. The data set is classed as physicochemical. As for the experimental part:
Some of the liquid weighting agents of this invention are usable as oil-miscible weighting agents (OMWA). As used throughout this document, the term “miscible” means that emulsions and/or separate phases are not observed in a 50:50 weight mixture of one or more of the liquid weighting agents of this invention (total of 50 wt %) and an oil (50 wt %) after the mixture has been kept at 0° C. for one week. Similarly, as used throughout this document, the term “partially miscible” means that emulsions and/or separate phases are not observed in a 50:50 weight mixture of one or more of the liquid weighting agents of this invention (total of 50 wt %) and an oil (50 wt %) after the mixture has been kept at room temperature for one week.
The tribromoneopentyl esters were each combined with a base oil in a 50:50 weight mixture.
Some of the tribromoneopentyl monoesters were tested in pairs in a base oil in a 25:25:50 weight ratio, with 25 wt % of each tribromoneopentyl monoester and 50 wt % of the base oil.
The dibromoallyl esters were each combined with a base oil in a 50:50 weight mixture.
Several mixtures of a monoester containing a terminal alkene moiety were tested in a base oil in a 50:50 weight mixture.
Several mixtures of a tribromoneopentyl monoester and a monoester containing a terminal alkene moiety were tested in a base oil in a 25:25:50 weight ratio, with 25 wt % of the tribromoneopentyl monoester, 25 wt % of 2,3-dibromoprop-2-en-1-yl propanoate, and 50 wt % of the base oil.

Setting [4] is: sediment toxicity test, Pass/Fail.

For the compound `O=C(CBr)OCC(CBr)(CBr)COC(=O)CBr` [2,2-bis(bromomethyl)1,3-propanediol-1,3-bis-(bromoacetate)], the Density in data set [1] is on record as 2.13 g/mL. For `CC(C)C(=O)OCC(CBr)(CBr)COC(=O)C(C)C` [2,2-bis(bromomethyl)1,3-propanediol-1,3-di(2-methylpropanoate)], in data set [1], the Density was 1.46 g/mL. Consider `CCCCCC(=O)OCC(CBr)(CBr)COC(=O)CCCCC` [2,2-bis(bromomethyl)1,3-propanediol-1,3-dihexanoate], for which the Result entry with Leptocheirus plumulosus (in vivo) is recorded as “Pass”. For the same compound, the Density in data set [1] is reported as 1.28 g/mL. Also, the Amount biodegradation in data set [2] was 7.36%. As for `CCC(=O)OCC(CBr)(CBr)COC(=O)CC` [2,2-bis(bromomethyl)1,3-propanediol-1,3-dipropionate], the Density in data set [1] is on record as 1.62 g/mL. Consider `CC(C)C(=O)OCC(Br)=CBr` [2,3-dibromoallyl 2-methylpropanoate], for which the Density in data set [1] came out at 1.70 g/mL. Besides, the “solid formation or phase separation” value in data set [3] (kept at −18° C. for one week) is on record as “no solid formation or phase separation was observed”. Besides, the miscibility entry in data set [3] is on record as “miscible”.

As to `CC(=O)OCC(Br)=CBr` [2,3-dibromoallyl acetate], in data set [1], the Density turned out to be 1.83 g/mL. Further, the “solid formation or phase separation” value in data set [3] (0° C. for one week) was “no solid formation or phase separation was observed”.

On to `CCC(=O)OCC(Br)=CBr` [2,3-dibromoallyl propionate], for which, in data set [1], the Density worked out at 1.79 g/mL. For the same compound, the “solid formation or phase separation” value in data set [3] (kept at −18° C. for one week) is reported as “no solid formation or phase separation was observed”. Moreover, in data set [3], the miscibility result is reported as “miscible”. `CC(C)C(=O)OC/C(Br)=C(\Br)COC(=O)C(C)C` [(2E)-2,3-dibromobut-2-ene-1,4-diyl bis(2-methylpropanoate)]: in data set [1], the Density is reported as 1.49 g/mL. Consider `CCC(Br)C(=O)OC/C(Br)=C(\Br)COC(=O)C(Br)CC` (centres unmarked) [(2E)-2,3-dibromobut-2-ene-1,4-diyl bis(2′-bromobutyrate)], for which the Density in data set [1] worked out at 1.94 g/mL.

For the compound `CCC(=O)OC/C(Br)=C(\Br)COC(=O)CC` [(2E)-2,3-dibromobut-2-ene-1,4-diyl bis(propanoate)], the Result result in the data set with Leptocheirus plumulosus (in vivo) is given as “Pass”. The Density in data set [1] came out at 1.59 g/mL. For the same compound, in data set [2], the Amount biodegradation is 54.64%. As to `O=C(CBr)OC/C=C\COC(=O)CBr` [(2Z)-but-2-ene-1,4-diyl bis(bromoacetate)], the Density in data set [1] came out at 1.74 g/mL. For `CC(C)C(=O)OCc1cc(Br)cc(Br)c1` [(3,5-dibromophenyl)methyl 2-methylpropanoate], in data set [1], the Density worked out at 1.62 g/mL.

On to `CC(=O)OCc1cc(Br)cc(Br)c1` [(3,5-dibromophenyl)methyl acetate], for which the Density in data set [1] was found to be 1.76 g/mL. On to `O=C(CBr)OCc1cc(Br)cc(Br)c1` [(3,5-dibromophenyl)methyl bromoacetate], for which the Density in data set [1] is reported as 2.06 g/mL. In the case of `CCCC(=O)OCc1cc(Br)cc(Br)c1` [(3,5-dibromophenyl)methyl butyrate], the Density in data set [1] came out at 1.62 g/mL. In data set [2], this compound came in with an Amount biodegradation of 25.1%. As for `CCCCC(=O)OCc1cc(Br)cc(Br)c1` [(3,5-dibromophenyl)methyl pentanoate], the Density in data set [1] is 1.56 g/mL. On to `CCC(=O)OCc1cc(Br)cc(Br)c1` [(3,5-dibromophenyl)methyl propionate], for which the Density in data set [1] is 1.68 g/mL. As to `O=C(CBr)OCC(COC(=O)CBr)OC(=O)CBr` [propane-1,2,3-triyl tris (bromoacetate)], the Density in data set [1] came out at 1.95 g/mL. In the case of `CC(C)C(=O)OCC(CBr)(CBr)CBr` [tribromoneopentyl 2-methylpropanoate, 3-bromo-2,2-bis(bromomethyl)propyl 2-methylpropanoate], the Result result in the data set on Leptocheirus plumulosus (setting [4]) is “Fail”. In addition, the Quantity in the data set on Leptocheirus plumulosus (sediment toxicity test) was ~243 mg/kg (estimate). Besides, the Density in data set [1] is 1.79 g/mL. As for `CCCC(=O)OCC(CBr)(CBr)CBr` [tribromoneopentyl butyrate, 3-bromo-2,2-bis(bromomethyl)propyl butyrate], the Density in data set [1] stood at 1.79 g/mL. Moreover, the “solid formation or phase separation” value in data set [3] (0° C. for one week) is on record as “no solid formation or phase separation was observed”.

Turning to `CCCCCC(=O)OCC(CBr)(CBr)CBr` [tribromoneopentyl hexanoate, 3-bromo-2,2-bis(bromomethyl)propyl hexanoate], the Density in data set [1] came to 1.57 g/mL. On the same count and under the same terms, under `CC(C)CC(=O)OCC(CBr)(CBr)CBr` [tribromoneopentyl isovalerate, 3-bromo-2,2-bis(bromomethyl)propyl isovalerate] stands 1.73 g/mL. On to `CCC(=O)OCC(CBr)(CBr)CBr` [tribromoneopentyl propionate, 3-bromo-2,2-bis(bromomethyl)propyl propionate], for which the Density in data set [1] amounted to 1.87 g/mL. Moreover, the “solid formation or phase separation” value in data set [3] (0° C. for one week) and in data set [3] (kept at −18° C. for one week) was “phase separation was observed” each time. Turning to `CCCCC(=O)OCC(CBr)(CBr)CBr` [tribromoneopentyl valerate, 3-bromo-2,2-bis(bromomethyl)propyl pentanoate], in the data set with Leptocheirus plumulosus (setting [4]), the Result entry is given as “Pass”. Further, in the data set with Leptocheirus plumulosus (sediment toxicity test), the Quantity is given as ~363 mg/kg (estimate). Also, in data set [1], the Density turned out to be 1.72 g/mL.
